Data: ChEMBL document CHEMBL4699506, “Polyhalogenation of Isoflavonoids by the Termite-Associated Actinomadura sp. RB99” (2020)

How the values were obtained:
Type in all cases: functional
[1] = system: Staphylococcus epidermidis; experiment: Antibacterial activity against Staphylococcus epidermidis assessed as reduction in bacterial growth after 24 hrs by two-fold serial dilution method
Candida albicans = experiment: Antifungal activity against Candida albicans assessed as reduction in […] by two-fold serial dilution method
Escherichia coli = experiment: Antibacterial activity against Escherichia coli assessed as reduction in bacterial growth after 24 hrs by two-fold serial dilution method
Helicobacter pylori = experiment: Antibacterial activity against Helicobacter pylori 51 assessed as reduction in microbial growth after 24 hrs by two-fold serial dilution method

Row | SMILES | MIC [1] [µg/mL] | MIC (Candida albicans) [µg/mL] | MIC (Escherichia coli) [µg/mL] | MIC (Helicobacter pylori) [µg/mL] | MIC50 (Helicobacter pylori) [µg/mL]
1 | O=c1c(-c2cc(Cl)c(O)c(Cl)c2)coc2cc(O)ccc12 | > 50 | > 50 | > 50 | – | –
2 | O=c1c(-c2ccc(O)cc2)coc2c(Cl)c(O)c(O)c(Cl)c12 | > 50 | > 50 | > 50 | – | –
3 | O=c1c(-c2cc(Cl)c(O)c(Cl)c2)coc2c(Cl)c(O)c(Cl)c(O)c12 | > 50 | > 50 | > 50 | – | –
4 | O=c1c(-c2ccc(O)cc2)coc2c(Cl)c(O)c(Cl)c(O)c12 | > 50 | > 50 | > 50 | – | –
5 | O=c1c(-c2cc(Br)c(O)c(Br)c2)coc2c(Br)c(O)c(Br)c(O)c12 | – | – | – | 58.1 | 14.5
6 | O=c1c(-c2cc(Br)c(O)c(Br)c2)coc2c(Br)c(O)ccc12 | – | – | – | 35.1 | 6.9
7 | Cc1ncc([N+](=O)[O-])n1CCO [METRONIDAZOLE] | – | – | – | 4.3 | 11.8

Now from value to molecule:

Row | MIC [1] [µg/mL] | MIC (Candida albicans) [µg/mL] | MIC (Escherichia coli) [µg/mL] | MIC (Helicobacter pylori) [µg/mL] | MIC50 (Helicobacter pylori) [µg/mL] | SMILES
8 | > 50 | > 50 | > 50 | – | – | COc1cc2occ(-c3cc(Cl)c(O)c(Cl)c3)c(=O)c2cc1OC
9 | > 50 | > 50 | > 50 | – | – | COc1cc2c(=O)c(-c3cc(Cl)c(O)c(Cl)c3)coc2c(Cl)c1O
10 | > 50 | > 50 | > 50 | – | – | COc1cc2c(=O)c(-c3cc(Cl)c(O)c(Cl)c3)coc2cc1O
11 | > 50 | > 50 | > 50 | – | – | O=c1c(-c2cc(Cl)c(O)c(Cl)c2)coc2c(Cl)c(O)c(Cl)cc12
